From patent US6153768A, “Benzopyran derivatives” (C & C Research Laboratories, priority 1996, dated 2000)

How the values were obtained:
estrogen receptor = conditions: literature, in words; cited from earlier work
MCF-7 cells = assay: Cell growth inhibiting activity (MTT, 0.1 nM estradiol, 7 days); assay type: cell-based; conditions: Homo sapiens, MCF7, 168 h, MCF-7, 0.1 nM estradiol
Method: In this experiment, the cell growth inhibiting activity was determined by using the compounds of Examples 6, 7, 12 and 46 as the test compound and the known anti-estrogenic compound ZM189154 having the following structure (see, EP0124369 B1) as the control compound, according to the method described hereinafter. [drawing 72]
One day before drug administration, incubated MCF-7 cells were plated in 96-well plate in the concentration of 5×10^3 cells per well. After the 96-well plate was incubated for one day, 0.1 nM of estradiol and the test compound in the given concentration were added to each well. The plate was incubated for 7 days at 37° C. and then MTT solution (Sigma) was added to each well in the amount of 15 μl and allowed to react for 2 hours at 37° C. After the reaction is completed, the solubilizing/stopping solution (constitution: SDS, acetic acid, N,N-dimethylformamide) was added to each well in the amount of 100 μl. Then, the absorption for each well at 570 nm was measured by means of a plate reader. IC50 value for inhibiting cell growth of 50% was calculated from the results as measured and described in the following Table 1.

[1] = system: increase of uterine weight by estradiol in ovariectomized mice; assay: Anti-estrogenic activity, inhibition of uterine weight increase, subcutaneous administration; assay type: in vivo, mice (ICR); conditions: s.c.; for Inhibition (%) of increase of uterine weight: 30 μg/mouse, 3 days; for inhibition of increase of uterine weight compared to ZM189154: in words
Method: Anti-estrogenic activity of the test compound by subcutaneous administration was determined according to the method described hereinafter. In this experiment, the compounds of Examples 6, 7, 12 and 46 were used as the test compound and the known anti-estrogenic compound ZM189154 was used as the control compound as in Experiment 1.
In this experiment, the test compound or the control compound was dissolved in peanut oil (Sigma) and injected subcutaneously for 3 days, once a day. After 24 hours from the last injection, the test animal was sacrificed and uterus was removed and weighed.

[2] = system: increase of uterine weight by estradiol in ovariectomized mice; assay: Anti-estrogenic activity, inhibition of uterine weight increase, oral administration; assay type: in vivo, mice (ICR); conditions: 10 mg/kg, p.o., 3 days
Method: Oral anti-estrogenic activity of the test compound was determined according to the method described hereinafter. In this experiment, the compound of Example 7 was used as the test compound and the known anti-estrogenic compound ZM189154 was used as the control compound as in Experiment 2.
In this experiment, the test compound or the control compound was suspended in 5% arabic gum solution and orally administered for 3 days, once a day. After 24 hours from the last administration, the test animal was sacrificed and uterus was removed and weighed.

mouse femur = assay: Effect on bone mineral density of mouse femur; assay type: in vivo, BALB/c nude mouse (female); conditions: for whole BMD / proximal BMD / distal BMD: mean ± SE, s.c. once a week, 6 weeks; for whole BMD: control 35.63 ± 0.97; for proximal BMD: control 35.95 ± 1.50; for distal BMD: control 37.80 ± 1.75
Method: The effect of the compound of the present invention on bone mineral density of mouse femur was determined according to the method described hereinafter. In this experiment, the compounds of Example 7 was used as the test compound and the known anti-estrogenic compound ZM189154 was used as the control compound as in Experiment 2.
MCF-7 cells (ATCC) as human breast cancer cell were transplanted subcutaneously into BALB/c nude mouse (female, 6 weeks) and then estradiol was percutaneously injected twice a week in an amount of 0.01 mg/mouse, for 3 weeks. Thereafter, estradiol was administered once a week in the same amount and the test compound or the control compound dissolved in 10% ethanol-90% peanut oil was administered. The control group received only vehicle. The test or control compound was administered subcutaneously in an amount of […], once a week. After the administration of the test compound for 6 weeks, left femur was excised and soft tissue was removed therefrom. Then the bone mineral density (BMD) was measured in a SPA mode by means of dual energy X-ray absorptiometry DCS-600 (Aloka). For interpretation, femur was divided into ten in the direction of long axis and the mean […] of 3, 4 and 3 fragments from proximal position were calculated. Each of the fragments was represented as proximal, middle or distal, respectively.

| IC50 (MCF-7 cells) | SMILES | Inhibition (%) of increase of uterine weight [1] | inhibition of increase of uterine weight compared to ZM189154 [1] | further results |
| --- | --- | --- | --- | --- |
| 277 nM | C[C@@]1(c2ccc(O)cc2)COc2cc(O)ccc2[C@@H]1CCCCCCCCCSCCCC(F)(F)C(F)(F)F (racemic) [Example 6, (3RS,4RS)-7-hydroxy-3-(4-hydroxyphenyl)-3-methyl-4-[9-(4,4,5,5,5-pentafluoropentylthio)nonyl]-2,3-dihydro-4H-benzopyran] | 83.1% | rather superior to that of ZM189154 | – |
| 54.8 nM | C[C@@]1(c2ccc(O)cc2)COc2cc(O)ccc2[C@@H]1CCCCCCCCC[S+]([O-])CCCC(F)(F)C(F)(F)F (mixture of isomers) [Example 7, (3RS,4RS)-7-hydroxy-3-(4-hydroxyphenyl)-3-methyl-4-[9-(4,4,5,5,5-pentafluoropentylsulfinyl)nonyl]-2,3-dihydro-4H-benzopyran] | 87.0% | rather superior to that of ZM189154 | Inhibition (%) of increase of uterine weight [2]: 68.1%; whole BMD (mouse femur): 37.23 ± 1.41 mg/cm^2; proximal BMD (mouse femur): 35.05 ± 2.05 mg/cm^2; distal BMD (mouse femur): 36.29 ± 1.46 mg/cm^2 |
| 33 nM | C[C@@]1(c2ccc(O)cc2)COc2cc(O)ccc2[C@@H]1CCCCCCCCC[S+]([O-])CCN1CCCCC1 (mixture of isomers) [Example 46, (3RS,4RS)-7-hydroxy-3-(4-hydroxyphenyl)-3-methyl-4-[9-((2-piperidinoethyl)sulfinyl)nonyl]-2,3-dihydro-4H-benzopyran] | 16.7% | rather superior to that of ZM189154 | – |

More lines, now with the values behind:

| SMILES | IC50 (MCF-7 cells) | Inhibition (%) of increase of uterine weight [1] | inhibition of increase of uterine weight compared to ZM189154 [1] | further results |
| --- | --- | --- | --- | --- |
| C[C@]12CC[C@@H]3c4ccc(O)cc4C[C@@H](CCCCCCCCC[S+]([O-])CCCC(F)(F)C(F)(F)F)[C@H]3[C@@H]1CC[C@@H]2O (stereo partly shown) | – | – | – | estrogenic activity (agonistic effect) (estrogen receptor): without agonistic effect |
| C[C@@]1(c2ccc(O)cc2)COc2cc(O)ccc2[C@@H]1CCCCCCCCSCCCC(F)(F)C(F)(F)F (racemic) [Example 12, (3RS,4RS)-7-hydroxy-3-(4-hydroxyphenyl)-3-methyl-4-[8-(4,4,5,5,5-pentafluoropentylthio)octyl]-2,3-dihydro-4H-benzopyran] | 524 nM | 74.8% | rather superior to that of ZM189154 | – |
| CCCCN(C)C(=O)CCCCCCCCCC[C@@H]1Cc2cc(O)ccc2[C@H]2CC[C@]3(C)[C@@H](O)CC[C@H]3[C@H]12 [7 α--(CH2)10 CONMeBu derivative] | – | – | – | anti-estrogenic activity (estrogen receptor): exhibit anti-estrogenic activity |
| CC/C(=C(\c1ccccc1)c1ccc(OCCN(C)C)cc1)c1ccccc1 [Tamoxifen] | – | – | – | estrogenic activity (agonistic effect) (estrogen receptor): exhibits estrogenic activity in some organs |
| CC1(c2ccc(O)cc2)CCc2cc(O)ccc2C1CCCCCCCCC[S+]([O-])CCCC(F)(F)C(F)(F)F (stereo not shown) [ZM189154] | 77 nM | 73.8% | – | Inhibition (%) of increase of uterine weight [2]: 41.7%; whole BMD (mouse femur): 34.57 ± 1.40 mg/cm^2; proximal BMD (mouse femur): 34.19 ± 2.19 mg/cm^2; distal BMD (mouse femur): 32.80 ± 1.30 mg/cm^2; decrease of BMD at distal femur (mouse femur; vs control): 13.3%; decrease of BMD at proximal femur (mouse femur; vs control): 4.9%; decrease of BMD at whole femur (mouse femur; vs control): 3.0% |
